The source of these data is PubChem BioAssay AID1996.

Molecules are shown by their SMILES. Converted amounts (≈) assume the structure as drawn.

The conditions of this data set: buffer; pH 7.4; 200.0 µM.
In general, solubility (kinetic) refers to the concentration staying in solution when a stock, usually in DMSO, is diluted into the medium. Regarding `O=C(NCC(c1ccco1)N1CCCC1)c1ccc(-n2cccn2)cc1` (stereo not drawn), the kinetic solubility was above 52.6 µg/mL.

The compound `CCOc1ccccc1Nc1nnc(SCC(=O)N(C)C2CCS(=O)(=O)C2)s1` (stereo not drawn) returned a solubility (kinetic) above 66.4 µg/mL. Then `COc1ccc(Br)cc1CN(C)C(=O)c1ccncc1`, with above 50.3 µg/mL. For `Cc1cc(C)cc(NC(=O)Nc2ccc3ccccc3n2)c1` the value was below 0.2 µg/mL; for `CC(=O)N1CCN(C(=O)COC(=O)/C=C/c2ccc(C(F)(F)F)cc2)CC1`, above 57.7 µg/mL; for `Cc1cc(OCC(=O)OCC(=O)NCc2cccs2)ccc1Cl`, 14 µg/mL (≈ 39.6 µM).

The compound `O=C(Nc1ccc(F)c(Cl)c1)Nc1csc2ccccc12` registered a kinetic solubility of 1 µg/mL (≈ 3.12 µM). Take `O=C(CNC(=O)c1ccc(Cl)cc1)c1ccc(Cl)cc1`: the kinetic solubility came out at 9 µg/mL (≈ 29.2 µM). For `S=C(Cc1ccc(-c2ccccc2)cc1)N1CCOCC1` the value was 0.7 µg/mL (≈ 2.35 µM); for `COc1ccc(C)cc1NC(=O)CN1C(=O)C2CC=CCC2C1=O` (stereo not drawn), above 49.3 µg/mL; for `Cc1ccsc1C(=O)NCCc1nnc2ccccn12`, above 43 µg/mL. Then `CC(C)Oc1ccccc1/C=N/NC(=O)C1CC1`, with above 36.9 µg/mL. Regarding `Cc1cc(=O)c(C(=O)O)nn1-c1ccc(Cl)cc1`, the kinetic solubility is above 39.7 µg/mL. Regarding `Cn1c(N2CCOCC2)c(C=O)c2ccccc21`, the solubility (kinetic) is above 36.6 µg/mL. For `Cc1ccn2cc(CNS(=O)(=O)c3cccs3)nc2c1` the value was above 46.1 µg/mL; for `CN1CCN(C(=O)/C=C/c2cccc(Cl)c2)CC1`, above 39.7 µg/mL. Consider `C=CCn1c(SCC(=O)N(C)CC(=O)Nc2ccc(C)cc2)nnc1-c1ccncc1`, for which the kinetic solubility is above 65.5 µg/mL. Then `Cn1cnnc1SCC(=O)NCCC1=CCCCC1`, with above 42.1 µg/mL; and `COC(=O)c1c(C)nsc1NC(=O)Oc1ccccc1`, with 2.7 µg/mL (≈ 9.24 µM). Then `CCC(CC)C(=O)Nc1ccc(-c2cn3cccnc3n2)cc1`, with 43.4 µg/mL (≈ 141 µM).

For `Cc1c(C(=O)O/N=C(\N)c2ccccn2)cccc1[N+](=O)[O-]`, the solubility (kinetic) stood at 5.2 µg/mL (≈ 17.3 µM).

In turn, `NS(=O)(=O)c1ccc(Nc2c([N+](=O)[O-])cncc2[N+](=O)[O-])cc1` returned a kinetic solubility of 50.4 µg/mL (≈ 149 µM). This solubility kinetic lies about 9.7-fold higher than the previous one. `COC(=O)C1=C(C(=O)OC)SC(=C2C(=S)C(C)(C)N(C(=O)C(C)C)c3ccccc32)S1` displayed a solubility (kinetic) below 1 µg/mL. Then `COc1ccc(CCNC(=O)CCc2cn(C)c3ccccc23)c(OC)c1`, with 16.9 µg/mL (≈ 46.1 µM). `COc1ccc(CNC(=S)NCc2ccc(Cl)cc2)cc1OC` displayed a kinetic solubility of 35 µg/mL (≈ 99.8 µM). This solubility kinetic lies about 2.1-fold higher than the previous one.

Compound `O=C(N/C(=C\c1ccccc1)C(=O)N1CCOCC1)c1ccco1` had a kinetic solubility above 49 µg/mL. Then `CCN(CC(=O)NCc1cccs1)C(=O)c1cccc(S(=O)(=O)N(C)C)c1`, with above 61.4 µg/mL; and `Cc1ccsc1C(=O)OCC(=O)NCc1ccco1`, with 41.1 µg/mL (≈ 147 µM); and `COc1ccc(C)cc1NC(=S)N1CCN(c2ncccn2)CC1`, with 47.4 µg/mL (≈ 138 µM). Take `CC(=O)c1ccc(OC(C)C(=O)NC2CCCCC2C)cc1` (stereo not drawn): the solubility (kinetic) is above 45.5 µg/mL. Then `COc1ccc2nc(NC(=O)c3cccs3)sc2c1`, with below 0.3 µg/mL. For `O=C(NN=Cc1ccc(O)cc1)c1ccccc1NS(=O)(=O)c1cccs1` the value was above 60.2 µg/mL. For `Brc1ccc(CNCC2CCCO2)cc1` (stereo not drawn), the kinetic solubility turned out to be 33.9 µg/mL (≈ 125 µM). For `Cc1ccc(S(=O)(=O)N2CCOCC2)cc1C(=O)OCC(=O)c1c(N)n(C)c(=O)n(C)c1=O` the value was 38.9 µg/mL (≈ 81 µM).

Consider `COc1ccc(C(=O)OCC(=O)N2CCc3ccccc32)cc1S(=O)(=O)N1CCOCC1`, for which the solubility (kinetic) worked out at 24.8 µg/mL (≈ 53.9 µM). In the case of `Cc1ccc(NC(=O)c2ccc(Cl)cc2Cl)cc1O`, the solubility (kinetic) worked out at 12 µg/mL (≈ 40.5 µM).

`CCOc1ncccc1C(=O)OCc1ccc([N+](=O)[O-])cc1`: the solubility (kinetic) worked out at 1.3 µg/mL (≈ 4.3 µM). This solubility kinetic is about 9.2-fold lower than that of the compound before.

Consider `O=C(O)COCC(=O)NC1CCN(Cc2ccccc2)CC1`, for which the solubility (kinetic) is above 46 µg/mL. Then `Cc1ccc(C)c(NC(=O)CN(C)C(=O)c2sccc2C)c1`, with above 47.5 µg/mL; and `COC(=O)c1ccc(S(=O)(=O)N(CCO)Cc2ccccc2)n1C`, with 47.6 µg/mL (≈ 135 µM). For `O=C(NCCc1ccccc1)C1CCC(=O)N1C1CCCC1` (stereo not drawn) the value was above 45.1 µg/mL; for `COc1ccc([N+](=O)[O-])cc1NC(=S)NC(C)=O`, 2 µg/mL (≈ 7.43 µM). Then `CC(C)n1cc(C(N)=S)c(=O)n(Cc2ccccc2)c1=O`, with 9.1 µg/mL (≈ 30 µM); and `Cc1cccc(-n2c(O)c(C=NCCN3CCNCC3)c(=O)[nH]c2=S)c1`, with 51.2 µg/mL (≈ 137 µM); and `O=C(COC(=O)COc1ccccc1F)Nc1ccc(Cl)cn1`, with 7.6 µg/mL (≈ 22.4 µM). As to `CSc1ncccc1C(=O)N1CCN(S(=O)(=O)c2ccc3c(c2)OCCO3)CC1`, the kinetic solubility is above 65.3 µg/mL. As for `N#Cc1cc(C#N)c(SCC(=O)NCC2CCCO2)nc1N` (stereo not drawn), the solubility (kinetic) was above 47.6 µg/mL. Then `FC(F)(F)Oc1ccc(-c2cn3cccnc3n2)cc1`, with 8.5 µg/mL (≈ 30.4 µM); and `Cc1ccc(S(=O)(=O)N2CCCCC2)cc1NC(=O)c1cc(F)c(F)c(F)c1F`, with 4.7 µg/mL (≈ 10.9 µM); and `CN1CCC(N(C)C(=O)COc2ccccc2Cl)CC1`, with above 44.5 µg/mL. For the compound `Cc1ccc(-n2c(C)cc(=O)cc2C)cc1[N+](=O)[O-]`, the kinetic solubility is above 38.7 µg/mL. Then `Cc1ccc(C(=O)N=c2sccn2C)cc1C`, with 10 µg/mL (≈ 40.6 µM); and `COc1ccc(/C=C2\SC(=O)N(CC(=O)Nc3cccc(C)c3)C2=O)cc1O`, with 0.6 µg/mL (≈ 1.51 µM); and `CCNC(=O)COC(=O)c1cccc(Br)c1`, with 40.8 µg/mL (≈ 143 µM). For `Cc1csc(=O)n1CC(=O)OCC(=O)NCc1ccccc1` the value was above 48.1 µg/mL; for `COC(=O)[C@H](CC(C)C)NC(=O)NCCC1=CCCCC1`, above 44.5 µg/mL. Then `Clc1ccc(OCC#CCN2CCOCC2)cc1.O=C(O)C(=O)O`, with 50.3 µg/mL; and `COc1ccc(C(=O)C(C)OC(=O)CN2C(=O)c3ccccc3C2=O)cc1` (stereo not drawn), with above 55.1 µg/mL; and `COc1ccc(NC(=O)NC2CCCCCCC2)cc1`, with 2.5 µg/mL (≈ 9.05 µM). Take `CN(c1ccccc1)c1ncccn1`: the solubility (kinetic) was 14.2 µg/mL (≈ 76.7 µM). Then `CC(=O)c1ccc(NC(=O)C[n+]2ccccc2)cc1.[Cl-]`, with above 43.6 µg/mL; and `Cl.OC(CNCc1ccncc1)c1ccccc1` (stereo not drawn), with above 39.7 µg/mL; and `COc1ccc(SCC2CN(C)CCC2c2ccc(F)cc2)cc1.Cl` (stereo not drawn), with 32.5 µg/mL. The compound `CCc1noc(C)c1C(=O)Nc1ccc(F)c(F)c1` returned a kinetic solubility of 37.7 µg/mL (≈ 142 µM). Then `CN(C)CCn1c(=S)[nH]c2ncccc2c1=O`, with 35.8 µg/mL (≈ 143 µM); and `CC(C)(C)c1cc(CN(CCO)CCO)c(O)c(C(C)(C)C)c1`, with 38.7 µg/mL (≈ 120 µM); and `COc1ccc(CCNC(=O)CSc2ccccn2)cc1OC`, with above 49.9 µg/mL. For `C=CCNC(=S)NNC(=O)c1ccncc1` the value was above 35.4 µg/mL. Then `O=S(=O)([O-])CCC[n+]1ccc(Oc2ccccc2)cc1`, with 21 µg/mL (≈ 71.6 µM); and `CCOC(=O)c1cccc(NC(=O)Nc2ccc3c(c2)C(=O)OC3)c1`, with below 0.4 µg/mL.

In turn, `CC(C)CCn1c(N2CCCC2)nc2c1c(=O)n(C)c(=O)n2C` returned a kinetic solubility of 46.6 µg/mL (≈ 146 µM). `COc1ccc(/C=N/N2CCOCC2)cc1Cn1cc([N+](=O)[O-])cn1` came in with a solubility (kinetic) above 51.8 µg/mL. Consider `CCOC(=O)c1sc(=NC(=O)c2ccc(F)cc2)n(C)c1C`, for which the solubility (kinetic) was determined as 1.4 µg/mL (≈ 4.34 µM).
